Test results reported in patent EP0556720B1, “5-Aminoflavone derivatives” (KYOWA HAKKO KOGYO CO., LTD., priority 1992, dated 1993).
Converted amounts (≈) assume the structure as drawn.

Legend:
Bacillus subtilis #10107 = experiment: Antibacterial activity, minimum inhibition concentration by agar dilution method; format: cell-based; conditions: agar dilution method at pH 7.0
Protocol: Antibacterial activity of the compound (I) against Bacillus subtilis #10107 [Minimum Inhibition Concentration (MIC; µg/ml)] is shown in Table 2. Minimum Inhibition Concentration was determined by agar dilution method at pH 7.0.

HeLaS3 cells = experiment: Human uterine cervix carcinoma (HeLaS3) growth inhibition test, neutral red staining; format: cell-based; conditions: HeLa S3, 72 hours culture with sample, absorbance at 550 nm
Protocol: Human uterine cervix carcinoma (HeLaS3) growth inhibition test;
Each 0.1 ml of HeLaS3 cells which had been prepared to 3 x 10^4/ml using a medium (referred to as Medium A hereinafter) consisted of MEM medium, 2 mM glutamine and 10% bovine fetal serum was distributed in each well of 96 well-microtiter plate. The plate was cultured at 37 °C for 20 hours in a CO2 gas incubator, each 0.05 ml of samples (test compounds) which had been appropriately diluted with Medium A was added thereto and the mixture was cultured at 37 °C for 72 hours in a CO2 gas incubator. Supernatant was removed, each 0.1 ml of Medium A containing 0.02% neutral red was added to the residue, the mixture was cultured at 37 °C for 1 hour in a CO2 gas incubator and the cells were stained. Supernatant was removed and the residue was washed once with saline. Then, the pigment was extracted with 0.001N hydrochloric acid/30% ethanol and the absorbance at 550 nm was measured with a microplatereader.

MCF-7 cells = experiment: Human mammary cancer (MCF-7) growth inhibition test, neutral red staining; format: cell-based; conditions: MCF7, medium with 10^-8M estradiol, 72 hours culture with sample
Protocol: Human mammary cancer (MCF-7) growth inhibition test;
Each 0.1 ml of MCF-7 cells which had been prepared to 5 x 10^4/ml using a medium (referred to as Medium B hereinafter) prepared by adding 10% bovine fetal serum, 10^-8M estradiol (manufactured by Sigma), 100 units/ml penicillin and 100 µg/ml streptomycin to medium RPMI1640 was distributed in each well of 96 well-microtiter plate. The plate was cultured at 37 °C for 20 hours in a CO2 gas incubator, each 0.05 ml of samples (test compounds) which had been appropriately diluted with Medium B was added thereto and the mixture was cultured at 37 °C for 72 hours in a CO2 gas incubator. Supernatant was removed, each 0.1 ml of Medium B containing 0.02% neutral red was added to the residue, the mixture was cultured at 37 °C for 1 hour in a CO2 gas incubator and the cells were stained. IC50 was calculated according to the same manner as that in Test 2.

[1] = test system: estrogen dependent human mammary cancer MCF-7; experiment: Antitumor effects against estrogen dependent human mammary cancer MCF-7 transplanted subcutaneously in nude mice; format: in vivo, female BALB/C-nu/nu mice; conditions: orally, five days per week for four weeks, ratio of V/V0 of treated group to control group
Protocol: Antitumor effects against estrogen dependent human mammary cancer MCF-7
Tumor strips (2mm x 2 mm x 2mm) of human hormone dependent mammary cancer MCF-7 were transplanted subcutaneously in the ventral part of female BALB/C-nu/nu mice (Nihon Crea), 7-9 weeks age. For promoting the growth of tumor, 12.5 µg of estradiol was intramuscularlly administered three times in the femoral region on the date of transplantation and 7 and 14 days after transplantation. 7 Days after transplantation, mice the tumor volume of which increased to 10-100 mm^3 were selected, and test compounds were orally administered repeatedly for five days per a week, for four weeks, at five animals per group. Length and breadth of the tumor were determined, and the tumor volumes were calculated by means of ellipsoid approximation according to the following equation: (Tumor volume […]= {Length (mm) x [Breadth (mm)])^2 }/2 [formula]
The tumor volume (V0) at initial administration was determined. The tumor volume (V) was determined after initiation to calculate V/V0 from which the ratio (T/C), that is, the ratio of V/V0 value of treated group relative to that of control group was obtained.

| SMILES | MIC (Bacillus subtilis #10107) | IC50 (HeLaS3 cells) | IC50 (MCF-7 cells) | T/C ([1]; Dose 25 mg/kg, Date 29) | T/C ([1]; Dose 6.3 mg/kg, Date 22) |
| --- | --- | --- | --- | --- | --- |
| CN(C)CCCCCCNc1ccc(-c2cc(=O)c3c(N)c(F)cc(F)c3o2)cc1F [Compound 53, 5-Amino-6,8-difluoro-2-[4-[6-(N',N'-dimethylamino)hexylamino]-3-fluorophenyl]-4H-1-benzopyran-4-one] | – | 6.8 µM | 6.2 µM | – | – |
| Nc1ccc(-c2cc(=O)c3c(N)c(Cl)cc(Cl)c3o2)cc1 [Compound 3, 5-Amino-2-(4-aminophenyl)-6,8-dichloro-4H-1-benzopyran-4-one] | – | 33 µM | 22 µM | – | – |
| Nc1ccc(-c2cc(=O)c3c(N)c(F)cc(F)c3o2)cc1F [Compound 26, 5-Amino-2-(4-amino-3-fluorophenyl)-6,8-difluoro-4H-1-benzopyran-4-one] | – | 26 µM | – | 0.45 | – |
| Nc1ccc(-c2cc(=O)c3c(N)c(F)cc(F)c3o2)cc1 [Compound 12, 5-Amino-2-(4-aminophenyl)-6,8-difluoro-4H-1-benzopyran-4-one] | – | 10 µM | – | – | 0.45 |

Now from value to compound, other results behind:

| MIC (Bacillus subtilis #10107) | IC50 (HeLaS3 cells) | IC50 (MCF-7 cells) | SMILES | T/C ([1]; Dose 25 mg/kg, Date 29) | T/C ([1]; Dose 6.3 mg/kg, Date 22) |
| --- | --- | --- | --- | --- | --- |
| 2.6 µg/mL (≈ 7.53 µM) | 3.4 µM | – | NCCCNc1ccc(-c2cc(=O)c3c(N)c(F)cc(F)c3o2)cc1 [Compound 24, 5-Amino-2-[4-[(3-aminopropyl)amino]phenyl]-6,8-difluoro-4H-1-benzopyran-4-one] | – | – |
| 5.2 µg/mL (≈ 15.9 µM) | 5.8 µM | – | NCCCNc1ccc(-c2cc(=O)c3c(N)c(F)ccc3o2)cc1 [Compound 16, 5-Amino-2-[4-[(3-aminopropyl)amino]phenyl]-6-fluoro-4H-1-benzopyran-4-one] | – | – |
